Laboratory results reported in patent US20210147367A1, “CRYSTALLINE FORMS OF A MAGL INHIBITOR” (Lundbeck La Jolla Research Center, Inc., priority 2019, published 2021).
Entries after “also recorded” stand apart in the source; their conditions may differ. Where two headings read alike, the source gives them in different places.

Legend:
[1] = Differential scanning calorimetry (DSC) with XRPD after heating: relative stability of crystalline forms; format: physicochemical; conditions: for thermodynamic stability relative to other crystalline forms: DSC analysis; for solid form after heating (XRPD): heated to 130° C., above the exotherm, prior to melting
Method: X-Ray powder diffractograms were measured on a PANalytical X'Pert PRO X-Ray Diffractometer using CuKα1 radiation (λ=1.5406 Å). The samples were measured in reflection mode in the 2θ-range 3-40 using an X'celerator detector.
Differential Scanning Calorimetry was measured using a TA-Instruments Discovery-DSC calibrated at 5°/min to give the melting point as onset value. About 2 mg of sample is heated 5°/min under nitrogen flow in a closed pan with a pinhole in the lid.

[2] = Slurry experiments in different solvents; format: physicochemical
[3] = Dynamic vapor sorption (DVS); format: physicochemical
Method: Dynamic vapour sorption (DVS) was measured using SMS DVS advantage 01 changing the relative humidity from 0% RH to 95% RH in steps of 10% RH (5% between 90 and 95% RH). 2 cycles were performed using 4 mg, starting at 30% RH. The weight changes during the sorption/desorption cycles were plotted, allowing for the hygroscopic nature of the sample to be determined.

MAGL [4] = molecular target: T1, MAGL (Homo sapiens, UniProt Q99685); experiment: In vitro competitive activity-based protein profiling; format: biochemical
T1 construct: human prefrontal cortex or cell membrane fractions for human assays; from tissue
T1 sequence (Q99685 1-303): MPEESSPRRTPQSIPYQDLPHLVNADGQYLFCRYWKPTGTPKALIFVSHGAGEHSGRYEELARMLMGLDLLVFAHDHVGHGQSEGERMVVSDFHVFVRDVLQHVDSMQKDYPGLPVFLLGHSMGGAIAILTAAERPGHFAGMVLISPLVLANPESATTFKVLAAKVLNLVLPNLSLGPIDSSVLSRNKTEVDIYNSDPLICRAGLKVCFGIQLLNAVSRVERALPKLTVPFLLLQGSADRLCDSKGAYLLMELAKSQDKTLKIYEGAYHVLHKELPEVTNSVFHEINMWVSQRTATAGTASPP
Method: (§1) Proteomes (mouse brain membrane fraction or cell lysates for mouse assays; human prefrontal cortex or cell membrane fractions for human assays) (50 μL, 1.0 mg/mL total protein concentration) were preincubated with varying concentrations of inhibitors at 37° C. After 30 min, FP-Rh or HT-01 (1.0 μL, 50 μM in DMSO) was added and the mixture was incubated for another 30 min at 37° C. Reactions were quenched with SDS loading buffer (15 μL-4×) and run on SDS-PAGE. Following gel imaging, serine hydrolase activity was determined by measuring fluorescent intensity of gel bands corresponding to MAGL using ImageJ 1.43u software.

MAGL [5] = molecular target: T2, MAGL (Mus musculus, UniProt O35678); experiment: MAGL inhibition in mouse brain proteomes from inhibitor treated mice; format: in vivo; conditions: 5 mg/kg oral gavage, brain proteome 4 h after administration, C57Bl/6J mice, read-out: MAGL % inh. 5 mg/kg (mouse)
T2 construct: from tissue; host or cells: brain of wild-type C57Bl/6J mice
T2 sequence (O35678 1-303): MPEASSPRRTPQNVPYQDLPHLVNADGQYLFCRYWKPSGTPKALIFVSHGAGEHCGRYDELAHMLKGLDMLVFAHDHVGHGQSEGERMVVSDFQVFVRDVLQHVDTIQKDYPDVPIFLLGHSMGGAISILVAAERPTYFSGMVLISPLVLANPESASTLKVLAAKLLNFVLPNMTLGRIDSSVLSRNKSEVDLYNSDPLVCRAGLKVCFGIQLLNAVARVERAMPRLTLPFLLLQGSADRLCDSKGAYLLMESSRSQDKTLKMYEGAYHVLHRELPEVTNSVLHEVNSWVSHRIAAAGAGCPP
Method: as §1
Inhibitors were administered to wild-type C57Bl/6J by oral gavage in a vehicle of polyethylene glycol. Each animal was sacrificed 4 h following administration and brain proteomes were prepared and analyzed according to previously established methods (See Niphakis et al., ACS Chem. Neurosci. 2011 and Long et al. Nat. Chem. Biol. 2009).

CC(C)(Oc1cc(C(F)(F)F)ccc1CN1CCN(C(=O)OC(C(F)(F)F)C(F)(F)F)CC1)C(=O)O [Compound (I) form A, 2-(2-((4-(((1,1,1,3,3,3-hexafluoropropan-2-yl)oxy)carbonyl)piperazin-1-yl)methyl)-5-(trifluoromethyl)phenoxy)-2-methylpropanoic acid form A]
thermodynamic stability relative to other crystalline forms [1]: the most stable free form up to 60 °C
thermodynamic stability relative to other crystalline forms ([1]; listed as Compound (I) Form A): thermodynamically more stable than Compound (I) Form C; also recorded: thermodynamically more stable than Compound (I) Form E
transformation of solid form in slurry ([2]; different solvents, temperatures up to 60° C.): did not lead to transformation into Compound (I) Form D

CC(C)(Oc1cc(C(F)(F)F)ccc1CN1CCN(C(=O)OC(C(F)(F)F)C(F)(F)F)CC1)C(=O)O.O [Compound (I) hydrate, 2-(2-((4-(((1,1,1,3,3,3-hexafluoropropan-2-yl)oxy)carbonyl)piperazin-1-yl)methyl)-5-(trifluoromethyl)phenoxy)-2-methylpropanoic acid hydrate]
behaviour in sorption/desorption cycles ([3]; 0% RH to 95% RH, 2 cycles): dehydration of the hydrate occurs at low relative humidity
solid state after DVS measurement ([3]; after 2 cycles 0% RH to 95% RH): turned amorphous

CC(C)(Oc1cc(C(F)(F)F)ccc1CN1CCN(C(=O)OC(C(F)(F)F)C(F)(F)F)CC1)C(=O)O [Compound (I) form C, 2-(2-((4-(((1,1,1,3,3,3-hexafluoropropan-2-yl)oxy)carbonyl)piperazin-1-yl)methyl)-5-(trifluoromethyl)phenoxy)-2-methylpropanoic acid form C]
solid form after heating (XRPD) ([1]; listed as Compound (I) Form C): transformed into Form A

CC(C)(Oc1cc(C(F)(F)F)ccc1CN1CCN(C(=O)OC(C(F)(F)F)C(F)(F)F)CC1)C(=O)O [Compound (I), 2-(2-((4-(((1,1,1,3,3,3-hexafluoropropan-2-yl)oxy)carbonyl)piperazin-1-yl)methyl)-5-(trifluoromethyl)phenoxy)-2-methylpropanoic acid]
inhibition at 1 µM (MAGL [4]; 1 μM, human proteome, read-out: MAGL % inh. 1 μM (human)): ≥ 75%
IC50 (MAGL [4]; human proteome, read-out: MAGL IC50 (human)): ≤ 0.05 µM
IC50 (MAGL [4]; protocol of example 14, read-out: MAGL IC50): ≤ 0.05 µM
inhibition at 5 mg/kg (MAGL [5]): ≥ 75%

CC(C)(Oc1cc(C(F)(F)F)ccc1CN1CCN(C(=O)OC(C(F)(F)F)C(F)(F)F)CC1)C(=O)O [Compound (I) form D, 2-(2-((4-(((1,1,1,3,3,3-hexafluoropropan-2-yl)oxy)carbonyl)piperazin-1-yl)methyl)-5-(trifluoromethyl)phenoxy)-2-methylpropanoic acid form D]
thermodynamic stability relative to other crystalline forms [1]: more thermodynamically stable at higher temperatures
thermodynamic stability relative to other crystalline forms ([1]; listed as Compound (I) Form D): more thermodynamically stable at high temperature but less stable at low temperature compared to Compound (I) Form A
temperature above which Compound (I) Form D is the more stable form ([2]; compared with Form A, inferred from slurry experiments): ≥ 60 °C

CC(C)(Oc1cc(C(F)(F)F)ccc1CN1CCN(C(=O)OC(C(F)(F)F)C(F)(F)F)CC1)C(=O)O [Compound (I) form E, 2-(2-((4-(((1,1,1,3,3,3-hexafluoropropan-2-yl)oxy)carbonyl)piperazin-1-yl)methyl)-5-(trifluoromethyl)phenoxy)-2-methylpropanoic acid form E]
solid form after heating (XRPD) ([1]; listed as Form E): transformed into Compound (I) Form A
